Consider 5 molecules from patent publication US7432403B2, “Cyclic palladium compounds having coordinated thereto bis (diphenylphosphine) ferrocene ligands which inhibit the activity of proteins and enzymes and treatment of diseases and disorders associated therewith” (Fundação De Amparo À Pesquisa Do Estado de São Paulo, priority 2002, dated 2008).

Series [1] concerns the target T1, ACE (Mus musculus, UniProt P09470).
T1 construct: host or cells: mouse plasma, in vivo
T1 sequence (P09470 35-1312): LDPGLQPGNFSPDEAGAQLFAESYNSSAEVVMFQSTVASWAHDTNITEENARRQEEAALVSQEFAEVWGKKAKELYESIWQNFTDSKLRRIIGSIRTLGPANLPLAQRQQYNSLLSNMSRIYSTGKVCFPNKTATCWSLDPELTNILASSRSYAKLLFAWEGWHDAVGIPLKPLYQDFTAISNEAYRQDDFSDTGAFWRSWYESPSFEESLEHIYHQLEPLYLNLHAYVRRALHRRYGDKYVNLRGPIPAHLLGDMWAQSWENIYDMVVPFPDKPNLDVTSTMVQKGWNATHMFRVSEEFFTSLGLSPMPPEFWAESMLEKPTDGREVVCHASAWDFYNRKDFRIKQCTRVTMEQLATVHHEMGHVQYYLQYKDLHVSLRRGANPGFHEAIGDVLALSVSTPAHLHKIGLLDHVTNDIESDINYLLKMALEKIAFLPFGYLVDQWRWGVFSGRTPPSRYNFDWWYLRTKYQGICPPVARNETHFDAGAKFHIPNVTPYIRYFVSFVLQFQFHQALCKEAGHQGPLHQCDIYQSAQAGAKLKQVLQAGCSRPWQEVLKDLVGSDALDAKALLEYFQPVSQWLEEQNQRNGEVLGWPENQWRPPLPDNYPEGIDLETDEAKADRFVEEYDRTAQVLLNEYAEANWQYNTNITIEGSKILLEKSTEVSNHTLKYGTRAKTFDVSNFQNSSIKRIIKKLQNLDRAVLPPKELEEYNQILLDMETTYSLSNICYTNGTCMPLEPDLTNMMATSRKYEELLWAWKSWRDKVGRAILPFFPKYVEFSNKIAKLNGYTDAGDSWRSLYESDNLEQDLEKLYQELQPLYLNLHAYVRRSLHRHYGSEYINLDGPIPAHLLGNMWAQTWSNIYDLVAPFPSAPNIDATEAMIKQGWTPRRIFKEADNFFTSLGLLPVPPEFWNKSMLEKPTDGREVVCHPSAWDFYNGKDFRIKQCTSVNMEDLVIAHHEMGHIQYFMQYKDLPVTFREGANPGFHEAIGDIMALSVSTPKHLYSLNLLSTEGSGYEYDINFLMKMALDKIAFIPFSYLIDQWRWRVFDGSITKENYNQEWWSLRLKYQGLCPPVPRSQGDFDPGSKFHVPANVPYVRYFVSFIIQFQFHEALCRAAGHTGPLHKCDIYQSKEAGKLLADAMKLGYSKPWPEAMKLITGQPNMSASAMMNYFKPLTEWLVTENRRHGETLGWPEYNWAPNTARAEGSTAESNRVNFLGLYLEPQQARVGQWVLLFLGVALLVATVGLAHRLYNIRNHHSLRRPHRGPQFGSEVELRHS
To be noted: administration one hour after radiation; cited from earlier work.

Series [2] can be described thus: Evaluation of acute toxicity, fixed dosage test, 14-day observation. The format is in vivo, mice. To be noted: one dose intraperitoneally. As for the experimental part: The concentration of cyclopalladated compounds of the invention as used in this study is being determined from the realization of a fixed dosage test, in which the substance to be tested is given to mice under specific dosage, which is selected from previously fixed dosages, according to classifications from ruling institutions, for which the maximum concentration to be tested should not surpass 2000 mg/kg.
After drug administration, a 14-day observation period follows. The dosage under which signs of acute toxicity are observed, such as changes in hair, mucosa and skin, as well as the occurrence of diarrhea and convulsions, conjunctivitis, excitement or slow movements, is used to graduate or classify the tested material.
Assayed compounds are diluted in saline containing 10% DMSO and then 0.2 ml of that solution are intraperitoneally given to the animals. Therefore, groups of 10 animals (5 males and 5 females) were treated with various doses of the compounds being studied. The control animals received only saline with 10% DMSO. After the end of the treatment, the animals remained in observation for a period of 14 days.

In series [3] the test system is HL60 cells. The series is described as follows: Morphological aspect of treated HL60 cells. The class given is cell-based. To be noted: 72 hours. The source says: From the results obtained by experiments as illustrated by Example 11, we verified cytotoxic activity of the cyclopalladated compounds in both studied lines, with results obtained from the two compounds being similar (FIGS. 10 and 11). […] On the other hand, the morphological aspect of leukemic cells HL60 treated with cyclopalladated compounds is that of cells in scheduled cell death process or apoptosis, as illustrated by FIG. 12.

Series [4] relates to Ehrlich's ascitic tumor. The series is described as follows: Life extension of animals with Ehrlich's ascitic tumor. The class given is in vivo, mice. To be noted: 1 mg/kg subcutaneously, four consecutive days, start 72 hours after inoculation. An excerpt: With the purpose to observe a possible protection of treated animals with the compounds of the invention, a life extension curve was drafted, considering animals with the Ehrlich's ascitic tumor, be them treated or not.
The Life Extension Curve of Kaplan-Meier was used to analyse the possibility of survival. The comparison between both groups (holders of tumor vs. holders of tumor/treated) was made by the Log-Rank method—non-parametrical procedures (Cox-Mantel). ANOVA variation analysis was used for the analysis of various groups. In case of significant difference, the Tukey's test was applied. In cases in which the number of samples between two groups was small, the Wilcoxon's non-parametrical test was used.
To develop the Ehrlich's ascitic tumor, mice are intraperitoneally inoculated with 0.1 ml of a suspension of tumor cells containing 10^6 cells, originating from the peritoneal cavity of holder mice. After taking out the ascitic liquid from the peritoneum of mice holding the tumor of Ehrlich, the number and viability of cells are determined by using trypan blue colorant in a Neubauer chamber.
With the purpose to observe possible protection of treated animals with the compounds [Pd2(C^2,N-S-dmpa)2(μ-dpp)Cl2] e [Pd2(C^2,N-S-dmpa)2(μ-dppf)(N3)2] (as per scheme C shown in generic structures), a life extension curve was made. […]

Series [5] deals with T2, Cathepsin B (Homo sapiens, UniProt P07858).
T2 construct: purchased Calbiochem Co
The series can be described thus: Cathepsin B endopeptidase activity, hydrolysis of fluorogenic substrate Z-Phe-Arg-MCA (spectrofluorimetry). The format is biochemical. As to conditions: for Ki: pH 6.4, 37° C., substrate Z-Phe-Arg-MCA. How it is done: Cathepsin B and papain were supplied by the company Calbiochem Co. and the concentration of active enzymes was determined by titulation using the cysteine-protease inhibitor known as E-64. Cathepsin B and papain were packed at 4° C. within 50 mM in sodium acetate buffer (pH 5.0) containing 10 μM MMTS. The fluorogenic substrate amidomethylcoumaryl Z-Phe-Arg-MCA, tripsin and the irreversible papain inhibitor E-64 were supplied by Sigma.
The influence of the organometal compounds on the activity of endopeptidase cathepsin B was determined by spectrofluorimetry, using the fluorogenic substrate Z-Phe-Arg-MCA. This peptide is a good substrate for cathepsin B with kcat/Ks=4.5 10^5 M^−1.s^−1 and was chosen so to locate residues Phe and Arg in P2 and P1, respectively. The substrate covers the main linkage sites S2, S1 and S′1 with cysteine-proteases similar to papain (Turk, D. et al, Revised definition of substrate binding sites of papain-like cysteine proteases, J. Biol. Chem.; 1998, 379, 137-147).
The intensities of fluorescence signals were monitored by a thermostatic spectrofluorimetry Hitachi F-2000. Wavelength was calibrated at 380 nm for excitation and 440 nm for emission. The activation of the enzyme was made by incubation for five minutes at 37° C. in a buffer solution of 50 mM sodium phosphate (pH 6.4) containing NaCl 200 mM, EDTA 1 mM and DTT 2 mM. Measurements were taken in the same activation buffer of cathepsin B and kynetic standards were set up by taking the initial hydrolysis rate under various concentrations of the substrate in the presence or absence of different concentrations of organometal compounds. The results were analysed by non-linear regression by using the software GraFit 3.01 (Erithacus Software Ltd.).
The Kynetic model of Scheme 1 describes the effect of heparin over the hydrolysis of Z-Phe-Arg-MCA by cathepsin B:
In which S represents the substrate Z-Phe-Arg-MCA; I represents the cyclometal compound; E represents cathepsin B; KS represents the dissociation constant of the substrate; KI represents the apparent dissociation constant of the organometal; α is a disturbance standard of KS; and β is a disturbance standard of Vmax (kcat), with the standards being in accordance to the equation: […]
Data were treated according to Equation 1, by using non-linear regression and the values for the constants were calculated. […] The hydrolysis rate of the second order substrates was the same, kcat/Ks=4.5 10^5 M^−1s^−1, in the presence or absence of [Pd (C^2,N-(R+dmpa)(dppf)]N3.

Read-outs that look alike come from different tables or passages of the source.

As to `NCCCC[C@H](N[C@@H](CCc1ccccc1)C(=O)O)C(=O)N1CCC[C@H]1C(=O)O` [lisinopryl], the “inhibition of murine plasma activity for ACE” value in series [1] is on record as 100%.

Take `C[C@@H]1c2cccc[c]2[Pd-2]([Cl])([P+](c2ccccc2)(c2ccccc2)[c-]2cccc2)[N+]1(C)C.C[C@@H]1c2cccc[c]2[Pd-2]([Cl])([P+](c2ccccc2)(c2ccccc2)[c-]2cccc2)[N+]1(C)C.[Fe+2]` (stereo partly drawn) [4b, [Pd2(C^2,N-R+ dmpa)2(μ-dppf)Cl2]]: in series [2] (10 mg/kg, listed as R(^+)dmpa Cl^− dppf (1:1), 10 mg/kg), the Signs and symptoms result is reported as “Signs of conjunctivitis”.

As to `C[C@H]1c2cccc[c]2[Pd-2]([Cl])([P+](c2ccccc2)(c2ccccc2)[c-]2cccc2)[N+]1(C)C.C[C@H]1c2cccc[c]2[Pd-2]([Cl])([P+](c2ccccc2)(c2ccccc2)[c-]2cccc2)[N+]1(C)C.[Fe+2]` (stereo partly drawn) [4a, [Pd2(C^2,N-S-dmpa)2(μ-dppf)Cl2]], the Signs and symptoms result in series [2] (500 mg/kg) was “Lack of acute toxicity signs”.

For `C[C@H]1c2cccc[c]2[Pd-2]([Cl])([P+](c2ccccc2)(c2ccccc2)[c-]2cccc2)[N+]1(C)C.[Fe+2].c1ccc(P(c2ccccc2)[c-]2cccc2)cc1` (stereo partly drawn) [[Pd(C^2,N-(S-dmpa)(dppf)Cl]], the “morphological aspect of treated HL60 cells” value in series [3] is “aspects of an apoptosis cell”. The “life extension of animals holding the ascitic tumor of Ehrlich” value in series [4] is on record as “increased the life extension”.

For [Pd(C^2,N-(R+dmpa)(dppf)]N3 [2a], in series [5], the “inhibition of Cathepsin B” value is 81%, the “product formation constant reduced to” value was 36, the “reduction of kcat in the presence of the compound” value is given as 5.6 times and the “α (disturbance standard of KS)” value is recorded as 0.19±0.02. Moreover, in series [5], the “β (disturbance standard of Vmax, kcat)” value is listed as 0.18±0.02 and the β/α amounted to 1.1±0.1. Also, in series [5] (in the presence of the compound), the “increase of the affinity between Cathepsin B and the substrate Z-Phe-Arg-MCA” value is 5.3 time. Moreover, the Ki in series [5] (read-out: dissociation constant KH, compound linked to free Cathepsin B (E)) worked out at 12 ± 1 µM. Moreover, in series [5] (read-out: dissociation constant αKH, compound linked to the enzyme-substrate (ES) complex), the Ki was 2.4 ± 0.3 µM. Moreover, the “Ks value in the presence of the organometal compound” value in series [5] (reduced from 110±15 without compound) came to 21 ± 2 µM.
